Counter-ions that a name gives are not always drawn. Like-named read-outs stand apart in the source and are kept apart here.
Target: T1, His6-AspH315–758 (human aspartate/asparagine-β-hydroxylase, AspH) (Homo sapiens, UniProt Q12797)
T1 construct: N-Terminally His6-tagged human AspH315–758 (His6-AspH315–758) was produced in E. coli BL21 (DE3) cells; made in house; host or cells: E. coli BL21 (DE3), pET-28a(+) vector
T1 sequence (Q12797 315-758): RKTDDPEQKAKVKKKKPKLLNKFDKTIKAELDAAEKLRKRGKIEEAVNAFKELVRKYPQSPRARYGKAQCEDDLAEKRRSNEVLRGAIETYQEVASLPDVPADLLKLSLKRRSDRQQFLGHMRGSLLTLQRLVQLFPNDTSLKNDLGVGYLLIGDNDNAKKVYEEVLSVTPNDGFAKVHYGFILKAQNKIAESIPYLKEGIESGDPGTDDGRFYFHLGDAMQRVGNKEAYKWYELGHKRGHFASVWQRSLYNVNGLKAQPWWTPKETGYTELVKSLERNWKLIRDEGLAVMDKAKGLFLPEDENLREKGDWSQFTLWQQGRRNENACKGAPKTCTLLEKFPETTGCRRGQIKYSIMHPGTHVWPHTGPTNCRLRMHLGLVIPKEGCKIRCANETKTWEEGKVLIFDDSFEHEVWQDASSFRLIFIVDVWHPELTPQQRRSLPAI
Assay: SPE-MS AspH inhibition assay (LOPAC screen at fixed 20 μM and IC50 dose-response), hydroxylation of cyclic peptide hFX-CP101–119
Assay type: biochemical

[1] = LOPAC compound at fixed 20 uM, plate 1, normalised to DMSO and 2,4-PDCA controls
[2] = LOPAC compound at fixed 20 uM, substrate conversion, plate 1
[3] = LOPAC compound at 20uM, plate 3, conversion of substrate peptide
[4] = LOPAC Plate 4, compound at 20 uM, substrate conversion
[5] = LOPAC Plate 4, compound at 20 uM, read-out: % inhibition

## Oc1ccc(-c2nc(-c3ccncc3)c(-c3ccc(F)cc3)[nH]2)cc1 [SB 202190]
[1]
  Plate 1 (% inhibition): -5.28%
[2]
  Plate 1 (% conversion): 37.64%

## Nc1nnc(-c2cccc(Cl)c2Cl)c(N)n1 [Lamotrigine]
[3]
  Plate 3 (% conversion): 33.75%

## Nc1c[n+](N2CCOCC2)no1.[Cl-] [3-Morpholinosydnonimine hydrochloride]
[1]
  Plate 1 (% inhibition): 64.67%
[2]
  Plate 1 (% conversion): 14.15%

## N=C(N)SCCc1cnc[nH]1 [Imetit dihydrobromide]
  Plate 3 (% conversion): 29.48%

## COC(=O)[C@@H](N)CCCN=C(N)N[N+](=O)[O-].Cl
[3]
  Plate 3 (% conversion): 34.54%

## NNCCc1ccccc1 [Phenelzine sulfate]
  inhibition at 20 µM: -1.74%

## CCC(=O)c1ccc2c(c1)N(CCCN(C)C)c1ccccc1S2 [Propionylpromazine hydrochloride]
[4]
  % conversion: 44.67%
[5]
  inhibition at 20 µM: -24%

## O=C(/C=C/c1ccc(O)c(O)c1)OCCc1ccccc1 [Caffeic acid phenethyl ester, reference compound]
AspH activity, fixed compound concentration 20 μM, initial LOPAC screen, 0.5%v/v DMSO, read-out: Inhibition at 20 µM [%]
  inhibition at 20 µM: 98.5%
[1]
  Plate 1 (% inhibition): 98.53%
[2]
  Plate 1 (% conversion): 2.78%

## O=[N+]([O-])c1ccc(CSc2ncnc3c2ncn3[C@@H]2O[C@H](CO)[C@@H](O)[C@H]2O)cc1 [S-(4-Nitrobenzyl)-6-thioinosine]
[3]
  Plate 3 (% conversion): 36.51%

## CC/C(=C(\c1ccccc1)c1ccc(OCCN(C)C)cc1)c1ccccc1 [Tamoxifen citrate]
[4]
  % conversion: 11.73%
[5]
  inhibition at 20 µM: 72.5%

## N[C@@H](CCCC(=O)O)C(=O)O [L-2-aminoadipic acid]
[1]
  Plate 1 (% inhibition): -2.85%
[2]
  Plate 1 (% conversion): 36.83%

## COC(=O)C1=C(C)NC(C)=C(C(=O)OC)C1c1ccccc1[N+](=O)[O-] [Nifedipine]
  Plate 3 (% conversion): 39.50%

## O=C1OC(=O)[C@H]2[C@@H]1[C@@H]1CC[C@H]2O1 [Norcantharidin]
  Plate 3 (% conversion): 35.60%

## CCCCN(CC)c1nc(C)nc2c1c(C)cn2-c1c(C)cc(C)cc1C [CP-154526]
Plate 5 (Pfitzer), test compounds at fixed 20 μM
  Plate 5 (% inhibition): -9.05%
Plate 5 (Pfitzer), test compounds at fixed 20 μM, mean conversion DMSO 32.88
  Plate 5 (% conversion): 39.39%

## 10058-F4
  Plate 1 (% conversion): 30.76%
  Plate 1 (% inhibition): 15.22%

## Nc1ccc(S(=O)(=O)Nc2ccnn2-c2ccccc2)cc1 [Sulfaphenazole]
[4]
  % conversion: 26.59%

## Cc1cc(C(C)(C)C)c(O)c(C)c1CC1=NCCN1 [Oxymetazoline hydrochloride]
[3]
  Plate 3 (% conversion): 41.41%

## N[C@@H]1CON=C1O [D-Cycloserine]
[1]
  Plate 1 (% inhibition): -7.97%
[2]
  Plate 1 (% conversion): 38.55%

## CC(CN(C)C)CN1c2ccccc2CCc2ccccc21 (stereo not shown) [Trimipramine maleate]
[4]
  % conversion: 41.64%
[5]
  inhibition at 20 µM: -15.1%

## N#C/C(=C\c1ccc(O)c(O)c1)C(=O)c1ccc(O)c(O)c1 [Tyrphostin AG 538]
[4]
  % conversion: 29.27%

## Cl.c1ccc2sc(C3(N4CCCCC4)CCCCC3)cc2c1 [BTCP hydrochloride]
  Plate 1 (% conversion): 41.13%
  Plate 1 (% inhibition): -15.64%

## CCOC(=O)[C@H](CCc1ccccc1)N[C@@H](C)C(=O)N1[C@H](C(=O)O)C[C@H]2CCCC[C@@H]21 [Trandolapril]
[3]
  Plate 3 (% conversion): 36.50%

## CN1C2CCC1CC(OC(=O)c1c[nH]c3ccccc13)C2.Cl (stereo not shown)
  % conversion: 31.98%

## Cl.c1ccc2c(N3CCNCC3)cccc2c1 [1-(1-Naphthyl)piperazine hydrochloride]
  % conversion: 30.74%

## CC(C)(Sc1ccc(CCN(CCCCC2CCCCC2)C(=O)NC2CCCCC2)cc1)C(=O)O [GW7647]
LOPAC compound at 20uM, plate 2, conversion of substrate peptide
  Plate 2 (% conversion): 29.96%
LOPAC compound at 20uM, plate 2, normalised to DMSO and 2,4-PDCA controls, read-out: Plate 2 (% inhibition)
  inhibition at 20 µM: 17.9%

## O=c1ccn([C@@H]2O[C@H](COP(=O)([O-])OP(=O)([O-])O)[C@@H](O)[C@H]2O)c(=O)[nH]1.[Na+].[Na+] [Uridine 5-diphosphate sodium]
LOPAC Plate 4, compound at 20 uM
  % inhibition: -0.23%
[4]
  % conversion: 36.55%

## CC(=O)Nc1nnc(S(N)(=O)=O)s1 [Acetazolamide]
[1]
  Plate 1 (% inhibition): 9.71%
[2]
  Plate 1 (% conversion): 32.61%

## CP-335963
  % conversion: 27.86%
  Plate 5 (% inhibition): -8.78%

## CCCn1c(=O)[nH]c(=O)c2nc[nH]c21 [3-n-Propylxanthine]
[3]
  Plate 3 (% conversion): 38.43%

## Nc1ncn([C@@H]2O[C@H](CO)[C@@H](O)[C@H]2O)c(=O)n1 [5-azacytidine]
[1]
  Plate 1 (% inhibition): 7.60%
[2]
  Plate 1 (% conversion): 33.32%

## NC(CCCP(=O)(O)O)C(=O)O (racemic) [(±)-2-Amino-5-phosphonopentanoic acid]
  Plate 1 (% conversion): 39.06%
[1]
  Plate 1 (% inhibition): -9.50%

## CCN[C@H]1CN(CCCOC)S(=O)(=O)c2sc(S(N)(=O)=O)cc21 [Brinzolamide]
[4]
  % conversion: 38.63%
[5]
  inhibition at 20 µM: -6.32%

## Nc1ncnc2c1ncn2[C@@H]1O[C@H](CO)[C@@H](O)[C@H]1O [Adenosine]
[1]
  Plate 1 (% inhibition): 4.27%
[2]
  Plate 1 (% conversion): 34.44%

## CC(=O)Oc1cc(C(F)(F)F)ccc1C(=O)O [Triflusal]
[4]
  % conversion: 27.02%

## C=CCN1C[C@H](C)N([C@H](c2ccc(C(=O)N(CC)CC)cc2)c2cccc(OC)c2)C[C@H]1C [SNC80]
  % conversion: 40.53%
20 µM
  % inhibition: -11.89%

## O=C(O)c1ccccc1Nc1ccccc1 [N-Phenylanthranilic acid]
[1]
  Plate 1 (% inhibition): 20.57%
[2]
  Plate 1 (% conversion): 28.96%

## CCc1cccc(N(C)C(N)=Nc2cccc3ccccc23)c1 [CNS-1102]
[1]
  Plate 1 (% inhibition): -9.21%
[2]
  Plate 1 (% conversion): 38.96%

## CCCN(CCC)CCc1cccc2c1CC(=O)N2 [Ropinirole hydrochloride]
  % conversion: 31.94%

## Nc1ncnc2c1ncn2C1CCCO1 (stereo not shown) [SQ 22536]
  % conversion: 37.42%

## NC(CCP(=O)(O)O)C(=O)O (racemic) [(±)-2-Amino-4-phosphonobutyric acid]
  Plate 1 (% conversion): 37.71%
  Plate 1 (% inhibition): -5.48%

## Cn1cnc2c1c(=O)[nH]c(=O)n2C [Theobromine]
[4]
  % conversion: 26.15%

## NCCCP(=O)(O)O [3-Aminopropylphosphonic acid]
  Plate 1 (% conversion): 37.53%
  Plate 1 (% inhibition): -4.94%

## C#CC(N)CCC(=O)O (stereo not shown) [gamma-Acetylinic GABA]
[1]
  Plate 1 (% inhibition): -4.92%
[2]
  Plate 1 (% conversion): 37.52%

## [Cl-].[Li+] [Lithium Chloride]
  Plate 2 (% conversion): 35.61%
20 µM
  Plate 2 (% inhibition): 1.04%

## N=C(N)c1ccc(N)cc1 [4-Aminobenzamidine dihydrochloride]
[1]
  Plate 1 (% inhibition): -9.05%
[2]
  Plate 1 (% conversion): 38.91%

Reference: article PMC7251097, “Aspartate/asparagine-β-hydroxylase: a high-throughput mass spectrometric assay for discovery of small molecule inhibitors” (Scientific Reports, 2020)
